Source: ChEMBL document CHEMBL1201862, “PubChem BioAssay data set” (2004)
Several values for one entry are separate records, joined by “and”; a condition that tells them apart may be missing. Identical values can stand only once.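 Assay format: 96-well plates, 48-hour exposure. GI50 is the concentration that inhibits growth by half.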 Activity calls are given as the source filed them. No stated cut-off is given here; in the data, active = GI50 up to about 1.1 µM and inactive = higher.

Columns and labels:
Test in all cases: inhibition of tumour cell growth, NCI panel, 48 h
HOP-62 = test system: HOP-62
MDA-MB-435 = test system: MDA-MB-435
SK-OV-3 = test system: SK-OV-3
HT-29 = test system: HT-29
CAKI-1 = test system: CAKI-1
RPMI-8226 = test system: RPMI-8226
NCI/ADR-RES = test system: NCI/ADR-RES
OVCAR-3 = test system: OVCAR-3
HCC 2998 = test system: HCC 2998
SK-MEL-5 = test system: SK-MEL-5
SK-MEL-28 = test system: SK-MEL-28
UO-31 = test system: UO-31
SNB-19 = test system: SNB-19
RXF 393 = test system: RXF 393
OVCAR-4 = test system: OVCAR-4
MOLT-4 = test system: MOLT-4
SF-295 = test system: SF-295
A498 = test system: A498
MCF7 = test system: MCF7
NCI-H226 = test system: NCI-H226
HCT-116 = test system: HCT-116
LOX IMVI = test system: LOX IMVI
786-0 = test system: 786-0
NCI-H23 = test system: NCI-H23
SR = test system: SR
TK-10 = test system: TK-10
KM12 = test system: KM12
NCI-H522 = test system: NCI-H522
COLO 205 = test system: COLO 205
SF-539 = test system: SF-539
UACC-257 = test system: UACC-257
A549 = test system: A549
SN12C = test system: SN12C
ACHN = test system: ACHN
SW-620 = test system: SW-620
HL-60 = test system: HL-60
SNB-75 = test system: SNB-75
EKVX = test system: EKVX
HCT-15 = test system: HCT-15
HOP-92 = test system: HOP-92
IGROV-1 = test system: IGROV-1
SF-268 = test system: SF-268
SK-MEL-2 = test system: SK-MEL-2
T47D = test system: T47D
MDA-MB-231 = test system: MDA-MB-231
OVCAR-8 = test system: OVCAR-8
K562 = test system: K562
DU-145 = test system: DU-145
Hs-578T = test system: Hs-578T
PC-3 = test system: PC-3
OVCAR-5 = test system: OVCAR-5
UACC-62 = test system: UACC-62
M14 = test system: M14
U-251 = test system: U-251
CCRF-CEM = test system: CCRF-CEM
MDA-N = test system: MDA-N
NCI-H460 = test system: NCI-H460

For `Cc1ccc(O)c(C(c2ccc([N+](=O)[O-])cc2)c2cc(C)ccc2O)c1`, the GI50 (HOP-62) was 10.8 µM (inactive), the GI50 (MDA-MB-435) was 10.9 µM (inactive) and the GI50 (SK-OV-3) was 15.1 µM (inactive). The GI50 (HT-29) was 12.2 µM (inactive), the GI50 (CAKI-1) was 15.1 µM (inactive) and the GI50 (RPMI-8226) was 10.1 µM (inactive). The GI50 (NCI/ADR-RES) was 10.7 µM (inactive), the GI50 (OVCAR-3) was 6.32 µM (inactive) and the GI50 (HCC 2998) was 2.99 µM (inactive). For the same compound, the GI50 (SK-MEL-5) was 5.75 µM (inactive), the GI50 (SK-MEL-28) was 16.6 µM (inactive) and the GI50 (UO-31) was 3.27 µM (inactive). For the same compound, the GI50 (SNB-19) was 13.1 µM (inactive), the GI50 (RXF 393) was 8.09 µM (inactive) and the GI50 (OVCAR-4) was 10.5 µM (inactive). The GI50 (MOLT-4) was 5.12 µM (inactive), the GI50 (SF-295) was 14.5 µM (inactive) and the GI50 (A498) was 18.4 µM (inactive). The GI50 (MCF7) was 4.98 µM (inactive), the GI50 (NCI-H226) was 15.9 µM (inactive) and the GI50 (HCT-116) was 14.4 µM (inactive). The GI50 (LOX IMVI) was 22.7 µM (inactive), the GI50 (786-0) was 21.2 µM (inactive) and the GI50 (NCI-H23) was 7.93 µM (inactive). For the same compound, the GI50 (SR) was 3.98 µM (inactive), the GI50 (TK-10) was 16.3 µM (inactive) and the GI50 (KM12) was 7.35 µM (inactive). The GI50 (NCI-H522) was 12.3 µM (inactive), the GI50 (COLO 205) was 20.7 µM (inactive) and the GI50 (SF-539) was 15.3 µM (inactive). The GI50 (UACC-257) was 14.6 µM (inactive), the GI50 (A549) was 9.66 µM (inactive) and the GI50 (SN12C) was 13.7 µM (inactive). For the same compound, the GI50 (ACHN) was 6.1 µM (inactive), the GI50 (SW-620) was 13.5 µM (inactive) and the GI50 (HL-60) was 1.47 µM (inactive). For the same compound, the GI50 (SNB-75) was 2.18 µM (inactive), the GI50 (EKVX) was 14.3 µM (inactive) and the GI50 (HCT-15) was 8.18 µM. The GI50 (HOP-92) was 11.1 µM (inactive), the GI50 (IGROV-1) was 11 µM (inactive) and the GI50 (SF-268) was 5.57 µM (inactive). For the same compound, the GI50 (SK-MEL-2) was 11.5 µM (inactive), the GI50 (T47D) was 11.2 µM (inactive) and the GI50 (MDA-MB-231) was 12 µM (inactive). The GI50 (OVCAR-8) was 11.7 µM (inactive), the GI50 (K562) was 12.2 µM (inactive) and the GI50 (DU-145) was 12.1 µM (inactive). The GI50 (Hs-578T) was 7.69 µM (inactive), the GI50 (PC-3) was 3.59 µM (inactive) and the GI50 (OVCAR-5) was 14.6 µM (inactive). For the same compound, the GI50 (UACC-62) was 7.4 µM (inactive), the GI50 (M14) was 11.7 µM (inactive) and the GI50 (U-251) was 16.8 µM (inactive). The GI50 (CCRF-CEM) was 10.8 µM (inactive).

For `O=C1OC(c2ccccc2)=N/C1=C\c1ccccc1`, the GI50 (HOP-62) was 29.1 µM (inactive) and 25.8 µM (inactive), the GI50 (MDA-MB-435) was 64 µM (inactive) and 56 µM (inactive) and the GI50 (SK-OV-3) was > 100 µM (inactive). The GI50 (CAKI-1) was > 100 µM (inactive), the GI50 (RPMI-8226) was 30.5 µM (inactive) and 22.5 µM (inactive) and the GI50 (NCI/ADR-RES) was 29.2 µM (inactive) and 40.7 µM (inactive). The GI50 (OVCAR-3) was 24 µM (inactive), the GI50 (HCC 2998) was > 100 µM (inactive) and 67.9 µM (inactive) and the GI50 (SK-MEL-5) was 38.1 µM (inactive) and 29.4 µM (inactive). For the same compound, the GI50 (SK-MEL-28) was > 100 µM (inactive) and 83.9 µM (inactive), the GI50 (UO-31) was > 100 µM (inactive) and the GI50 (SNB-19) was 66.7 µM (inactive) and 40.1 µM (inactive). The GI50 (OVCAR-4) was 86.5 µM (inactive) and 49.7 µM (inactive), the GI50 (MOLT-4) was 28.2 µM (inactive) and 47 µM (inactive) and the GI50 (SF-295) was 69 µM (inactive) and 68.2 µM (inactive). For the same compound, the GI50 (A498) was > 100 µM (inactive), the GI50 (MCF7) was 48.4 µM (inactive) and 96.6 µM (inactive) and the GI50 (NCI-H226) was 24 µM (inactive) and 36.6 µM (inactive). For the same compound, the GI50 (HCT-116) was > 100 µM (inactive), the GI50 (LOX IMVI) was 17.1 µM (inactive) and 23.3 µM (inactive) and the GI50 (NCI-H23) was > 100 µM (inactive). For the same compound, the GI50 (SR) was 28.4 µM (inactive) and 14.5 µM (inactive), the GI50 (TK-10) was 62.7 µM (inactive) and 78.2 µM (inactive) and the GI50 (KM12) was 34.8 µM (inactive) and 26.6 µM (inactive). For the same compound, the GI50 (NCI-H522) was 42.9 µM (inactive), the GI50 (MDA-N) was 44.7 µM (inactive) and the GI50 (SF-539) was 19 µM (inactive) and 21.1 µM (inactive). For the same compound, the GI50 (UACC-257) was 41.4 µM (inactive) and 25.9 µM (inactive), the GI50 (A549) was > 100 µM (inactive) and the GI50 (SN12C) was 66.4 µM (inactive). For the same compound, the GI50 (ACHN) was > 100 µM (inactive), the GI50 (HL-60) was 29.5 µM (inactive) and 18.7 µM (inactive) and the GI50 (SNB-75) was 66.8 µM (inactive) and 47.5 µM (inactive). The GI50 (EKVX) was > 100 µM (inactive), the GI50 (HOP-92) was > 100 µM (inactive) and the GI50 (IGROV-1) was 55.5 µM (inactive) and 37.6 µM (inactive). The GI50 (SK-MEL-2) was 17.8 µM (inactive), the GI50 (T47D) was > 100 µM (inactive) and the GI50 (NCI-H460) was 45.9 µM (inactive) and 43.9 µM (inactive). For the same compound, the GI50 (MDA-MB-231) was > 100 µM (inactive), the GI50 (OVCAR-8) was 38.8 µM (inactive) and 32.6 µM (inactive) and the GI50 (DU-145) was > 100 µM (inactive) and 59 µM (inactive). For the same compound, the GI50 (Hs-578T) was 58.7 µM (inactive) and 36.7 µM (inactive), the GI50 (PC-3) was > 100 µM (inactive) and the GI50 (OVCAR-5) was > 100 µM (inactive). For the same compound, the GI50 (UACC-62) was > 100 µM (inactive), the GI50 (M14) was 26.9 µM (inactive) and 30.4 µM (inactive) and the GI50 (U-251) was 32.1 µM (inactive) and 35.1 µM (inactive). The GI50 (CCRF-CEM) was 21 µM (inactive) and 24.6 µM (inactive).
